One data set has as its system HIV-1IIIB. Briefly: HIV-1 antiviral cytoprotection assay in CEM-SS cells. The data set is classed as cell-based. On the procedure: Antiviral efficacy of SA-101A and SA-101B compounds were evaluated in an HIV 1 antiviral cytoprotection assay using CEM-SS cells and the laboratory adapted HIV 1IIIB virus strain.
Compound preparation. Compounds SA-101A and SA-101B were prepared in powder form and solubilized in DMSO and stored at −20° C. AZT (Sigma), solubilized in sterile H2O, was used as a positive antiviral control and was stored at 4° C. The compounds were evaluated at a high test concentration of 500 μg/mL. AZT was run in parallel at a concentration of 500 nM.
Cell Preparation. CEM-SS cells were passaged in T-75 flasks prior to use in the antiviral assay. On the day preceding the assay, the cells were split 1:2 to assure they were in an exponential growth phase at the time of infection. Total cell and viability quantification was performed using a hemacytometer and trypan blue exclusion. Cell viability was greater than 95% for the cells to be utilized in the assay. […]
Virus Preparation. […] The virus was resuspended and diluted into tissue culture medium such that the amount of virus added to each well in a volume of 50 μl was the amount determined to give approximately 90% cell killing at 6 days post-infection.
MTS Staining for Cell Viability. At assay termination, the assay plates were stained with the soluble tetrazolium-based dye MTS (Cell Titer Reagent Promega) to determine cell viability and quantify compound toxicity. […]

For another data set, the system named is HIV-1Ba-L. Briefly: Anti-HIV efficacy in human monocyte/macrophages (p24 ELISA). The data set is classed as cell-based. As to the method: SA-101A and SA-101B were tested for antiviral activity against HIV-1 virus in peripheral blood monocytes/macrophages. Monocytes/macrophages were derived from normal HIV-1 negative donors, and cultured under conditions which promote cell survival and HIV replication. Fresh human blood was obtained commercially from Biological Specialty Corporation (Colmar, Pa.). The low passage, monocytropic, clinical isolate HIV-1Ba-L (Subtype B, R5) was obtained from the NIAID AIDS Research and Reference Reagent Program. A pre-titered aliquot of HIV 1Ba-L was removed from the freezer (−80° C.) and thawed rapidly to room temperature in a biological safety cabinet immediately before use. Phytohemagglutinin (PHA-P) was obtained from Sigma (St. Louis, Mo.) and recombinant IL-2 was obtained from R&D Systems Inc. (Minneapolis, Minn.).
Compound preparation: Compounds SA-101A and SA-101B were in powder form and solubilized in DMSO prior to use. AZT (Sigma), solubilized in sterile dH2O, was used as the positive antiviral control. The compounds were tested at a 100 μg/mL high-test concentration; AZT was tested at a 1,000 ηM high-test concentration. Compound SA-101B was tested in the presence of 40% human AB serum.
Monocyte isolation and culture. Peripheral blood monocytes were isolated from screened donors sero-negative for HIV and HBV. Cells were pelleted by low speed centrifugation and re-suspended in PBS to remove contaminating platelets. The leukophoresed blood was then diluted with Dulbecco's phosphate buffered saline (PBS) and layered over of Lymphocyte Separation Medium (LSM; Cellgro® by Mediatech, Inc.; density 1.078+/−0.002 g/ml; Cat. # 85-072-CL) in a 50 mL centrifuge tube and then centrifuged. Banded PBMCs were gently aspirated from the interface and subsequently washed with PBS by low speed centrifugation. The cells were diluted to 4×10^6 cells per mL in DMEM without phenol red supplemented with 10% heat inactivated human pooled AB serum, 2 mM L-glutamine, 100 U/mL penicillin and 100 μg/mL streptomycin. Monocytes/macrophages were allowed to adhere to the interior 60 wells (100 μL/well) of a 96 well flat bottomed plate for 2 to 18 hours at 37° C., 5% CO2. The exterior wells were filled with 200 μL of sterile DPBS to serve as a humidity barrier. Following adherence of cells, the cultures were washed with sterile DPBS to remove non-adherent cells (lymphocytes and contaminating RBCs). […]
Anti-HIV efficacy evaluation in human monocyte/macrophages. […] At assay termination, virus replication was measured by collecting cell-free supernatant samples, which were analyzed for HIV p24 antigen content using a commercially available p24 ELISA assay (Coulter). […]
Background: ELISA stands for enzyme-linked immunosorbent assay.

Another data set relates to CEM-SS cells. In words: MTS cell viability in CEM-SS cells (cytotoxicity). The data set is classed as cell-based. Conditions: for TC50: MTS; for Cytotoxicity: at the concentrations evaluated. As to the method: Cell Preparation. CEM-SS cells were passaged in T-75 flasks prior to use in the antiviral assay. On the day preceding the assay, the cells were split 1:2 to assure they were in an exponential growth phase at the time of infection. Total cell and viability quantification was performed using a hemacytometer and trypan blue exclusion. Cell viability was greater than 95% for the cells to be utilized in the assay. The cells were resuspended at 5×10^4 cells/ml in tissue culture medium and added to the drug-containing microliter plates in a volume of 50 μl.
MTS Staining for Cell Viability. At assay termination, the assay plates were stained with the soluble tetrazolium-based dye MTS (Cell Titer Reagent Promega) to determine cell viability and quantify compound toxicity. At termination of the assay, 20 μL of MTS reagent was added per well. The microtiter plates were then incubated 4 6 hrs at 37° C. Adhesive plate sealers were used in place of the lids, the sealed plate was inverted several times to mix the soluble formazan product and the plate was read spectrophotometrically at 490/650 ηm with a Molecular Devices Vmax plate reader.
Data Analysis. Using an in-house computer program, IC50 (50%, inhibition of virus replication), IC95 (95%, inhibition of virus replication), TC50 (50% reduction in cell viability), TC95 (95% reduction in cell viability), and a therapeutic index (TI=TC50/IC50) were determined.

A short description of data set [1]: Solubility in pH controlled solutions and intravenous formulations. The data set is classed as physicochemical. As to the method: Solubility of prostratin and SA-101B was measured in pH controlled solutions and in various representative formulations, in particular, intravenous formulations, where solubility is often a limiting factor.

In brackets after ≈: the same amount, converted by molar mass. Like-named read-outs stand apart in the source and are kept apart here.

The term IC50 denotes the concentration needed to halve the response being measured. As a reminder, the IC90 is the concentration needed for an effect of 90%. The term solubility denotes the dissolved amount per volume that the medium holds.

Regarding `CC(=O)OC12CC(C)C3(O)C(C=C(COC(=O)CCC(=O)O)CC4(O)C(=O)C(C)=CC43)C1C2(C)C` (stereo not shown) [SA-101B, Prostratin Succinate], the IC50 result in the data set on HIV-1IIIB is reported as “did not achieve an IC50 value”. In addition, in the data set with HIV-1Ba-L (40% Human AB serum), the IC50 is 0.28 µg/mL and the IC90 came out at 7.29 µg/mL. For the same compound, in the data set on CEM-SS cells, the TC50 was above 0.50 µg/mL and the Cytotoxicity result is given as “no cytotoxicity”. Moreover, in data set [1] (5% Dextrose), the “Solubility 5% Dextrose” value was above 10000 µg/mL. The “Solubility Saline (0.9% NaCl)” value in data set [1] (Saline (0.9% NaCl)) is above 10000 µg/mL. Further, the “Solubility compared with prostratin” value in data set [1] (all media) is “better solubility than prostratin”. The “Solubility pH 1” value in data set [1] (pH 1) turned out to be 1.21 mg/mL. For the same compound, the “Solubility pH 2” value in data set [1] (pH 2) turned out to be 4.46 mg/mL. For the same compound, the “Solubility pH 5” value in data set [1] (pH 5) is 7.72 mg/mL. In addition, the “Solubility pH 7.5” value in data set [1] (pH 7.5) is 11.20 mg/mL. Moreover, the “Solubility pH 9” value in data set [1] (pH 9) was found to be 12.08 mg/mL.
As for `CC(=O)O[C@@]12C[C@@H](C)[C@@]3(O)[C@@H](C=C(CO)C[C@]4(O)C(=O)C(C)=C[C@@H]34)[C@@H]1C2(C)C` [SA-101A, 12-deoxyphorbol 13-acetate], the IC50 is 0.086 µg/mL (≈ 0.22 µM) in the data set on HIV-1IIIB (Human immunodeficiency virus 1, read-out: IC50) and 0.11 µg/mL (≈ 0.282 µM) in the data set on HIV-1Ba-L (Human immunodeficiency virus 1, Macrophage, read-out: IC50). For the same compound, the IC90 in the data set with HIV-1Ba-L (Human immunodeficiency virus 1, Macrophage, read-out: IC90) is 0.28 µg/mL (≈ 0.717 µM). This compound came in with a TC50 in the data set on CEM-SS cells above 0.50 µg/mL. Moreover, the Cytotoxicity entry in the data set on CEM-SS cells was “no cytotoxicity”. Besides, the solubility in data set [1] (5% dextrose (intravenous formulation), saline or isotonic, read-out: Solubility 5% Dextrose) was 330 µg/mL (≈ 845 µM); in data set [1] (pH controlled solution, pH 1, simulated gastric fluid, read-out: Solubility pH 1), 370 µg/mL (≈ 948 µM); in data set [1] (pH controlled solution, pH 2, simulated gastric fluid, read-out: Solubility pH 2), 370 µg/mL (≈ 948 µM); in data set [1] (pH controlled solution, pH 5, aqueous buffer, read-out: Solubility pH 5) it was 450 µg/mL (≈ 1150 µM); in data set [1] (pH controlled solution, pH 7.5, aqueous buffer, read-out: Solubility pH 7.5), 420 µg/mL (≈ 1080 µM); in data set [1] (pH controlled solution, pH 9, aqueous buffer, read-out: Solubility pH 9), 390 µg/mL (≈ 999 µM). For the same compound, the solubility in data set [1] (saline (0.9% NaCl) (intravenous formulation), saline or isotonic, read-out: Solubility Saline (0.9% NaCl)) amounted to 340 µg/mL (≈ 871 µM).

The values are drawn from US8022103B2, “Ester prodrugs of prostratin and related phorbol compounds” (Salvia Sciences, Inc., priority 2005, dated 2011).
